Assay results: ChEMBL document CHEMBL1759897, “Discovery of non-peptide, small molecule antagonists of α9α10 nicotinic acetylcholine receptors as novel analgesics for the treatment of neuropathic and tonic inflammatory pain” (Bioorg Med Chem Lett, 2011)
Active and inactive are the calls of the source. The calls are words filed in the database; no cut-off is given here.

Key:
[1] = target: Neuronal acetylcholine receptor; alpha9/alpha10 (Homo sapiens) (UniProt Q9UGM1+Q9GZZ6); assay: Antagonist activity at alpha9/alpha10 nAChR expressed in Xenopus oocyte assessed as inhibition of ACh-gated current response at 100 nM by voltage clamp electrophysiology assay; assay type: functional; design: scale not given: the % may be the effect or the level left
Rattus norvegicus [2] = species on record: Rattus norvegicus; assay: Analgesic activity in rat pain model by tail flick test; assay type: functional, organism-based
Rattus norvegicus [3] = species on record: Rattus norvegicus; assay: Analgesic activity in rat inflammatory pain model assessed reduction formalin-induced inflammatory pain; assay type: functional, organism-based
Rattus norvegicus [4] = species on record: Rattus norvegicus; assay: Analgesic activity in rat chronic constriction nerve injury model of neuropathic pain assessed as reversal of mechanical hyperalgesia; assay type: functional, organism-based
[5] = target: Neuronal acetylcholine receptor; alpha9/alpha10 (Homo sapiens, UniProt Q9GZZ6+Q9UGM1); assay: Antagonist activity at alpha9/alpha10 nAChR expressed in Xenopus oocyte assessed as inhibition of ACh-gated current by voltage clamp electrophysiology assay; assay type: functional
Rattus norvegicus [6] = assay: Analgesic activity in rat chronic constriction nerve injury model of neuropathic pain assessed as reversal of mechanical hyperalgesia measured after repeated dosing for 7 days; assay type: functional, organism-based
[7] = target: Neuronal acetylcholine receptor subunit alpha-7 (Homo sapiens, UniProt P36544); assay: Antagonist activity at alpha7 nAChR expressed in Xenopus oocyte assessed as inhibition of ACh-gated current by voltage clamp electrophysiology assay; assay type: functional
[8] = target: Neuronal acetylcholine receptor; alpha3/beta4 (Homo sapiens, UniProt P30926+P32297); assay: Inhibition of alpha3beta4 nAChR; assay type: protein-complex assay
[9] = Inhibition of muscle nAChR; assay type: tissue-based, Muscle tissue
[10] = target: Neuronal acetylcholine receptor; alpha4/beta2 (Homo sapiens, UniProt P17787+P43681); assay: Inhibition of alpha4beta2 nAChR; assay type: protein-complex assay
Chain of Neuronal acetylcholine receptor; alpha4/beta2 (P17787 whole entry): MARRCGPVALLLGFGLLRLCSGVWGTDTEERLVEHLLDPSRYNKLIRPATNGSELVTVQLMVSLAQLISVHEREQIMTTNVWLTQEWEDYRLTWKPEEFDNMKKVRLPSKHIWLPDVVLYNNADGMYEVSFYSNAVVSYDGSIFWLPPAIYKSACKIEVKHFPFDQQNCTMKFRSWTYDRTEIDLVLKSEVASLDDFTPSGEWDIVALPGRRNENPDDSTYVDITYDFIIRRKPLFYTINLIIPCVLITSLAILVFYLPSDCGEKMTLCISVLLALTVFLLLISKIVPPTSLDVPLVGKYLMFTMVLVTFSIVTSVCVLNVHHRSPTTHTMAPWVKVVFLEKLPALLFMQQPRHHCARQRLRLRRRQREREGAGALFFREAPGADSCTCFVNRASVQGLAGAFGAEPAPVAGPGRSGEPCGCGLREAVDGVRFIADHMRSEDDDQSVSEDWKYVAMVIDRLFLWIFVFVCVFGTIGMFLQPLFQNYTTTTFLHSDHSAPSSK
Chain of Neuronal acetylcholine receptor; alpha4/beta2 (P43681 whole entry): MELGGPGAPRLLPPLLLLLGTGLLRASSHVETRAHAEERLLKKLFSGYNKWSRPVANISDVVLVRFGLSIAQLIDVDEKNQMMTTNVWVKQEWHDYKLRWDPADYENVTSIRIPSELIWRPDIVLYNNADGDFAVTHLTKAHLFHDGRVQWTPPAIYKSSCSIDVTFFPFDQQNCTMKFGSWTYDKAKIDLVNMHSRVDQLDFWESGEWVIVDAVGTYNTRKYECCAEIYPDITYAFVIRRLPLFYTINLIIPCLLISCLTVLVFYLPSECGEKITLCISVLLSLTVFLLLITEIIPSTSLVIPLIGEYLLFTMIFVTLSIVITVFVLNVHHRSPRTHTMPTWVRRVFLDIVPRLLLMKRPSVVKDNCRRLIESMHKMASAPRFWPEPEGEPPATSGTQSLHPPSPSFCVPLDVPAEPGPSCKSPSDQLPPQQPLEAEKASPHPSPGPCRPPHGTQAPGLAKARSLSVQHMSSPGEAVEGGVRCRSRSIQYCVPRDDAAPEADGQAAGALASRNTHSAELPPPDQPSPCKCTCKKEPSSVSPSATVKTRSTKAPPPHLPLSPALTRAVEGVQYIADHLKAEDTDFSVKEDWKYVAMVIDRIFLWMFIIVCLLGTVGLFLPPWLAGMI

Chain of Neuronal acetylcholine receptor; alpha9/alpha10 (Q9UGM1 whole entry): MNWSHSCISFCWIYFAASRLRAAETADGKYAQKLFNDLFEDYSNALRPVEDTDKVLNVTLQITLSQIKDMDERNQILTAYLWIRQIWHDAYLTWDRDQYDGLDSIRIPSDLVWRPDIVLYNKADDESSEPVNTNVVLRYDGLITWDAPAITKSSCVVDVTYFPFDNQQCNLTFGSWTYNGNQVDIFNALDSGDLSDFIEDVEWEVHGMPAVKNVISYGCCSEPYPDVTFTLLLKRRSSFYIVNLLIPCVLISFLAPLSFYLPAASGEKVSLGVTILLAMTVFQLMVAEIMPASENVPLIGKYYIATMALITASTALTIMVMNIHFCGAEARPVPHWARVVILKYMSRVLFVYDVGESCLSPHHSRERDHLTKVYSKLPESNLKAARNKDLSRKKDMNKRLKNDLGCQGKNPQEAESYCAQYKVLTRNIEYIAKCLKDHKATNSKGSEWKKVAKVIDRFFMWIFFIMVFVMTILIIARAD
Chain of Neuronal acetylcholine receptor; alpha9/alpha10 (Q9GZZ6 whole entry): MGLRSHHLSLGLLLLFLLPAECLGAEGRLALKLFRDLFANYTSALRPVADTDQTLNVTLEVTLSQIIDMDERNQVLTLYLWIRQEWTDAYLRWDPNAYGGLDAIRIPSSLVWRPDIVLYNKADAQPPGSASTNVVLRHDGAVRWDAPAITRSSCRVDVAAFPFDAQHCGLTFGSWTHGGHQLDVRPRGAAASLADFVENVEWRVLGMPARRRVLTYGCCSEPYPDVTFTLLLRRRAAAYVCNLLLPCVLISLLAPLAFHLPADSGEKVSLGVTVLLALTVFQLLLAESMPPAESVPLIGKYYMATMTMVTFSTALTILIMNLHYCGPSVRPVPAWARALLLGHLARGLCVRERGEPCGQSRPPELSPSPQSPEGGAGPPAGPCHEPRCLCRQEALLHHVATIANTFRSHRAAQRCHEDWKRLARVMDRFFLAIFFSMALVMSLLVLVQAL
Chain of Neuronal acetylcholine receptor subunit alpha-7 (P36544 whole entry): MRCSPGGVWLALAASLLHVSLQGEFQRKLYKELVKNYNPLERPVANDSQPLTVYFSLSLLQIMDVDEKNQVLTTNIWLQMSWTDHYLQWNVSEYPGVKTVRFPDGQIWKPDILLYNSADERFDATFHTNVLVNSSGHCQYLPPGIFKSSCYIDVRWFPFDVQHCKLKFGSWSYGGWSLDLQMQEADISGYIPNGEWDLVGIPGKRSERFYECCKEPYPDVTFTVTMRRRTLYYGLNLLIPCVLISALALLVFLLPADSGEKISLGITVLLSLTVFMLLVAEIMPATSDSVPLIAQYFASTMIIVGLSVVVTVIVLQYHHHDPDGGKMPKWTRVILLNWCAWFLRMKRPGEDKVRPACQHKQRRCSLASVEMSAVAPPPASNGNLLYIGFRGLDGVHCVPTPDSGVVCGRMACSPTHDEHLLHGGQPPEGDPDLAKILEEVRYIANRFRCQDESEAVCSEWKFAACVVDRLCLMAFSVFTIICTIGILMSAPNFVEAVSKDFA
Chain of Neuronal acetylcholine receptor; alpha3/beta4 (P30926 whole entry): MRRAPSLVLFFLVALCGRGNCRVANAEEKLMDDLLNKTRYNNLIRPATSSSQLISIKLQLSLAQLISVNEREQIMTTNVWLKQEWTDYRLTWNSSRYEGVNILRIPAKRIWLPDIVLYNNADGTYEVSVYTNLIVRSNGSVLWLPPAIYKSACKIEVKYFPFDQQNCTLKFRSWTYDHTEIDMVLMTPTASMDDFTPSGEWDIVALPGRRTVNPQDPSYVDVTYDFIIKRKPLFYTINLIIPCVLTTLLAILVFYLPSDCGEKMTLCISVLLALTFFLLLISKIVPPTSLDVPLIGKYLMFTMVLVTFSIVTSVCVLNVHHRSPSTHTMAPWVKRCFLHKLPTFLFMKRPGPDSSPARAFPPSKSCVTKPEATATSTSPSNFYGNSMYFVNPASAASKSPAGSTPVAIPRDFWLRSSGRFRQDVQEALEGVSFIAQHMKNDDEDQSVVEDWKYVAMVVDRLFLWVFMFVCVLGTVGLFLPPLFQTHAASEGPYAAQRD
Chain of Neuronal acetylcholine receptor; alpha3/beta4 (P32297 whole entry): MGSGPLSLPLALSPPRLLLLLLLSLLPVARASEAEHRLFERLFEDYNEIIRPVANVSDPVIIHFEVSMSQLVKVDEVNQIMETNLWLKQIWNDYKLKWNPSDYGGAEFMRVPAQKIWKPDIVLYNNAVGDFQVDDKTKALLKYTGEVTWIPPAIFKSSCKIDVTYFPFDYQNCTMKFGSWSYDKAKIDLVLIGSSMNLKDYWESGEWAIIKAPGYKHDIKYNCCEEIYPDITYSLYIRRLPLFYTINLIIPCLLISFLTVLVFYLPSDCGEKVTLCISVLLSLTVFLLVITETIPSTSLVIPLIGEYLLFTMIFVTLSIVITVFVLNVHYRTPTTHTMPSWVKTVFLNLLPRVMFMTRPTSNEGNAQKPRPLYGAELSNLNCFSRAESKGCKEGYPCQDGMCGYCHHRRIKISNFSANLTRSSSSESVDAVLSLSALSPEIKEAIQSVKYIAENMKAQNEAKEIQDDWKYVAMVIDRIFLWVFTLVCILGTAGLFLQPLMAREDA

SMILES | Activity [1] | also measured
Cc1cc[n+](CCC#Cc2ccc(C#CCC[n+]3ccc(C)c(C)c3)cc2)cc1C | 10.6% | –
C(#Cc1cccc(C#CCCC[n+]2ccc3ccccc3c2)c1)CCC[n+]1ccc2ccccc2c1 | 39.7% | –
c1cc(CCCCC[n+]2cccc3ccccc32)cc(CCCCC[n+]2cccc3ccccc32)c1 | 42.6% | –
Cc1cc[n+](CCCC#Cc2ccccc2C#CCCC[n+]2ccc(C)c(C)c2)cc1C | 31.3% | –
Cc1cc[n+](CCCc2ccc(-c3ccc(CCC[n+]4ccc(C)c(C)c4)cc3)cc2)cc1C | 89.3% | –
Cc1cc[n+](CCCC#Cc2cc(C#CCCC[n+]3ccc(C)c(C)c3)cc(C#CCCC[n+]3ccc(C)c(C)c3)c2)cc1C | 61.1% | –
Cc1cc[n+](CCCCc2ccc(CCCC[n+]3ccc(C)c(C)c3)cc2)cc1C | 36.7% | –
Cc1cc[n+](CC#Cc2ccc(-c3ccc(C#CC[n+]4ccc(C)c(C)c4)cc3)cc2)cc1C | 8.1% | Activity (Rattus norvegicus [2]): inactive; Activity (Rattus norvegicus [3]): Active; Activity (Rattus norvegicus [4]): Dose-dependent effect; IC50 [5]: 16 nM; Activity (Rattus norvegicus [6]): inactive; IC50 [7]: 1190 nM
Cc1cc[n+](CCCCCc2ccccc2CCCCC[n+]2ccc(C)c(C)c2)cc1C | 72% | –
c1ccc(CCCCC[n+]2ccc3ccccc3c2)c(CCCCC[n+]2ccc3ccccc3c2)c1 | 31.1% | –
c1cc(CCCCC[n+]2ccc3ccccc3c2)cc(CCCCC[n+]2ccc3ccccc3c2)c1 | 37.5% | –
c1ccc2c(c1)ccc[n+]2CCCCCc1cc(CCCCC[n+]2cccc3ccccc32)cc(CCCCC[n+]2cccc3ccccc32)c1 | 15.9% | Activity (Rattus norvegicus [2]): inactive; Activity (Rattus norvegicus [3]): Active; Activity (Rattus norvegicus [4]): Dose-dependent effect; Activity (Rattus norvegicus [6]): inactive
Cc1cc(C)c[n+](CCCC#Cc2cc(C#CCCC[n+]3cc(C)cc(C)c3)cc(C#CCCC[n+]3cc(C)cc(C)c3)c2)c1 | 66% | –
Cc1cc(C)c[n+](CCCCCc2cc(CCCCC[n+]3cc(C)cc(C)c3)c(CCCCC[n+]3cc(C)cc(C)c3)cc2CCCCC[n+]2cc(C)cc(C)c2)c1 | 0.6% | –
Cc1cc(C)c[n+](CCCC#Cc2cc(C#CCCC[n+]3cc(C)cc(C)c3)c(C#CCCC[n+]3cc(C)cc(C)c3)cc2C#CCCC[n+]2cc(C)cc(C)c2)c1 | 0.3% | –
Cc1cc(C)c[n+](CCCCCc2cc(CCCCC[n+]3cc(C)cc(C)c3)cc(CCCCC[n+]3cc(C)cc(C)c3)c2)c1 | 79.8% | –
c1ccc(-c2ccc[n+](CCCCCc3cc(CCCCC[n+]4cccc(-c5ccccc5)c4)c(CCCCC[n+]4cccc(-c5ccccc5)c4)cc3CCCCC[n+]3cccc(-c4ccccc4)c3)c2)cc1 | 6.5% | IC50 [5]: 5.4 nM; IC50 [7]: 99 nM
Cc1cc(C)c[n+](CCCCc2ccc(CCCC[n+]3cc(C)cc(C)c3)cc2)c1 | 97.1% | –
Cc1cc[n+](CCCC#Cc2cc(C#CCCC[n+]3ccc(C)c(C)c3)c(C#CCCC[n+]3ccc(C)c(C)c3)cc2C#CCCC[n+]2ccc(C)c(C)c2)cc1C | 47.4% | –
C(#Cc1cc(C#CCCC[n+]2cccc(-c3ccccc3)c2)cc(C#CCCC[n+]2cccc(-c3ccccc3)c2)c1)CCC[n+]1cccc(-c2ccccc2)c1 | 5.5% | –

SMILES | Activity [1] | also measured
CCCCc1ccc[n+](CCCCCc2cc(CCCCC[n+]3cccc(CCCC)c3)cc(CCCCC[n+]3cccc(CCCC)c3)c2)c1 | 16.1% | –
CCCCc1ccc[n+](CCCC#Cc2cc(C#CCCC[n+]3cccc(CCCC)c3)cc(C#CCCC[n+]3cccc(CCCC)c3)c2)c1 | 36.1% | –
Cc1cc[n+](CCCCCc2cc(CCCCC[n+]3ccc(C)c(C)c3)c(CCCCC[n+]3ccc(C)c(C)c3)cc2CCCCC[n+]2ccc(C)c(C)c2)cc1C | 11% | –
C(#Cc1cccc(C#CCCC[n+]2cccc3ccccc32)c1)CCC[n+]1cccc2ccccc21 | 41.6% | –
c1ccc(-c2ccc[n+](CCCCCc3cc(CCCCC[n+]4cccc(-c5ccccc5)c4)cc(CCCCC[n+]4cccc(-c5ccccc5)c4)c3)c2)cc1 | 3.84% | –
Cc1cc(C)c[n+](CCC#Cc2ccc(C#CCC[n+]3cc(C)cc(C)c3)cc2)c1 | 76.2% | –
c1ccc2c[n+](CCCCCc3cc(CCCCC[n+]4ccc5ccccc5c4)cc(CCCCC[n+]4ccc5ccccc5c4)c3)ccc2c1 | 6.9% | –
Cc1cc[n+](CCCCCc2cccc(CCCCC[n+]3ccc(C)c(C)c3)c2)cc1C | 62.7% | –
Cc1cc(C)c[n+](CCCc2ccc(-c3ccc(CCC[n+]4cc(C)cc(C)c4)cc3)cc2)c1 | 114% | –
C(#Cc1cc(C#CCCC[n+]2cccc(-c3ccccc3)c2)c(C#CCCC[n+]2cccc(-c3ccccc3)c2)cc1C#CCCC[n+]1cccc(-c2ccccc2)c1)CCC[n+]1cccc(-c2ccccc2)c1 | 0.3% | IC50 [8]: 800 nM; Activity (Rattus norvegicus [2]): inactive; Activity (Rattus norvegicus [3]): Active; Activity (Rattus norvegicus [4]): Dose-dependent effect; Activity (Rattus norvegicus [6]): inactive; IC50 [9]: 120 nM; IC50 [10]: 3800 nM
Cc1cc(C)c[n+](CCCCCc2ccccc2CCCCC[n+]2cc(C)cc(C)c2)c1 | 124% | –
c1ccc(CCCCC[n+]2cccc3ccccc32)c(CCCCC[n+]2cccc3ccccc32)c1 | 10.9% | –
Cc1cc[n+](CCCCCc2cc(CCCCC[n+]3ccc(C)c(C)c3)cc(CCCCC[n+]3ccc(C)c(C)c3)c2)cc1C | 62.7% | –
Cc1cc[n+](CCCC#Cc2cccc(C#CCCC[n+]3ccc(C)c(C)c3)c2)cc1C | 76.9% | –
C(#Cc1cccc(C#CCCC[n+]2cccc(-c3ccccc3)c2)c1)CCC[n+]1cccc(-c2ccccc2)c1 | 23.2% | –
C(#Cc1cc(C#CCCC[n+]2ccc3ccccc3c2)c(C#CCCC[n+]2ccc3ccccc3c2)cc1C#CCCC[n+]1ccc2ccccc2c1)CCC[n+]1ccc2ccccc2c1 | 11.6% | –
C(#Cc1cc(C#CCCC[n+]2cccc3ccccc32)cc(C#CCCC[n+]2cccc3ccccc32)c1)CCC[n+]1cccc2ccccc21 | 10.5% | –
c1ccc2c[n+](CCCCCc3cc(CCCCC[n+]4ccc5ccccc5c4)c(CCCCC[n+]4ccc5ccccc5c4)cc3CCCCC[n+]3ccc4ccccc4c3)ccc2c1 | 17.9% | –
Cc1cc(C)c[n+](CCCC#Cc2ccccc2C#CCCC[n+]2cc(C)cc(C)c2)c1 | 67.6% | –
C(#Cc1ccccc1C#CCCC[n+]1ccc2ccccc2c1)CCC[n+]1ccc2ccccc2c1 | 28% | –
